Assay results: ChEMBL document CHEMBL1133402, “Irreversible inhibition of type I dehydroquinase by substrates for type II dehydroquinase” (Bioorg Med Chem Lett, 2000)
Active and inactive are the calls of the source. The calls are words filed in the database; no cut-off is given here.

Experiments:
[1] = target: T1, 3-dehydroquinate dehydratase (Escherichia coli K-12, UniProt P05194); assay: Tested for the binding affinity against dehydroquinase
T1 sequence (P05194 whole entry): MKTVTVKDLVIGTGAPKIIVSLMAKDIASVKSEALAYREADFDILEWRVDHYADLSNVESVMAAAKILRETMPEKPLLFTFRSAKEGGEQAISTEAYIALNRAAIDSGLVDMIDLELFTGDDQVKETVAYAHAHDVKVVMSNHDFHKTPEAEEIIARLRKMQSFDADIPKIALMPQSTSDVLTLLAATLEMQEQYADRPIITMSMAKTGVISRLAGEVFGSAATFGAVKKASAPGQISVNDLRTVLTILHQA

[2] = target: T2, 3-dehydroquinate dehydratase (Escherichia coli K-12) (UniProt P05194); assay: kcat/Km value was determined
T2 sequence (whole entry): T1 sequence (P05194 whole entry)

[3] = target: T2, 3-dehydroquinate dehydratase (Escherichia coli K-12); assay: Tested for inhibitory activity against type I dehydroquinase; active
[4] = target: T2, 3-dehydroquinate dehydratase (Escherichia coli K-12); assay: Tested for percent inactivation against dehydroquinase after 24 hr at 10 mM

Ki [1] [mM] | k cat/Km [2] [M⁻¹ s⁻¹] | Activity [3] | Inactivation [4] [%] | SMILES
3.7 | 367000 | Active | 70 | O=C1C(O)C(O)CC(O)(C(=O)O)C1Br (centres undefined)
0.08 | 86000 | Active | 45 | O=C1C(O)C(O)CC(O)(C(=O)O)C1F (centres undefined)
 |  | Active |  | O=C(O)C1=C(Br)C(=O)[C@@H](O)[C@H](O)C1
